Measured values from patent publication US20230159619A1, “COMPOSITIONS AND METHODS FOR REGULATING IMMUNE SYSTEM ACTIVITY” (Olema Pharmaceuticals, Inc., priority 2017, published 2023).
Changes are numbered by the printed parent chain.

Legend:
[1] = target: T1, endoxifen-responsive dominant negative Zap70 polypeptide including an ER(T2) domain having a G400V mutation (Homo sapiens, UniProt P03372, G400V/L544A/M543A); test: Endoxifen pIC50 in NFAT-Luciferase reporter assay, G400V construct (Example 8); format: cell-based; conditions: Jurkat E6.1 cells, 10 ng G400V construct, 1:30 Immunocult CD3/CD28/CD2, 19 hours
T1 construct: expressed in transfected cells; host or cells: Jurkat E6.1 cells, transient transfection
T1 sequence (P03372 with tags, fused parts or gaps G400V/M543A/L544A): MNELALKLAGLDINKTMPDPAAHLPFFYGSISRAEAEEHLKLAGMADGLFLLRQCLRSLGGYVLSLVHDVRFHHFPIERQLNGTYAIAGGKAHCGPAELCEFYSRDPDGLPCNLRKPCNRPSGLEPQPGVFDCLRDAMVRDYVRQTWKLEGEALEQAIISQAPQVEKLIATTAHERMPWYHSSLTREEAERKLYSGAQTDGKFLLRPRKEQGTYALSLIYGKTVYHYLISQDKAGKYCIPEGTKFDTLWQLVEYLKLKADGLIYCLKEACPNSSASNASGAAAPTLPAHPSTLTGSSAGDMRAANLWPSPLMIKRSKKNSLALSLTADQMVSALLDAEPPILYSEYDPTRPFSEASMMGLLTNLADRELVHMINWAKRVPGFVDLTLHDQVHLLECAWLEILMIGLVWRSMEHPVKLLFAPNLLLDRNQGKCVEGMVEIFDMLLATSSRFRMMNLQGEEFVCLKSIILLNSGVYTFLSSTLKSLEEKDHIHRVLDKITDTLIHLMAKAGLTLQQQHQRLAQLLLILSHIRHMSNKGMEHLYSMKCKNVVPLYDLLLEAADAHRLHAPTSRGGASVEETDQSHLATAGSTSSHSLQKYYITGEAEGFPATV
Description: (§1) To examine how effective endoxifen is at relieving the inhibition or masking of a dominant negative signaling moiety of a trigger-responsive dominant negative signaling polypeptide by an ER(T2) domain including either a G400V or a G400L mutation, Jurkat E6.1 cells were transiently transfected with 90 ng NFAT-Luciferase reporter construct and 10 ng of a G400V or G400L construct. The transfected cells were stimulated the addition of 1:30 Immunocult CD3/CD28/CD2 tetrameric antibody mixture, and treated with or without endoxifen for 19 hours before assaying for luciferase activity. Results were normalized to maximum TCR stimulation with Immunocult alone, with 0% representing the activity of unstimulated transfected cells. Points represent mean activity from sextuplicate wells with error bars representing SEM. pIC50's were calculated using a variable slope sigmoidal dose-response model using GraphPad Prism.

[2] = target: T2, endoxifen-responsive dominant negative Zap70 polypeptide including an ER(T2) domain having a G400L mutation (Homo sapiens, UniProt P03372, G400L/L544A/M543A); test: Endoxifen pIC50 in NFAT-Luciferase reporter assay, G400L construct (Example 8); format: cell-based; conditions: Jurkat E6.1 cells, 10 ng G400L construct, 1:30 Immunocult CD3/CD28/CD2, 19 hours
T2 construct: expressed in transfected cells; host or cells: Jurkat E6.1 cells, transient transfection
T2 sequence (P03372 with tags, fused parts or gaps G400L/M543A/L544A): T1 sequence (P03372 with tags, fused parts or gaps G400V/M543A/L544A) with V415L
Description: as §1

[3] = system: IL2-Luciferase reporter; test: IL2-Luciferase reporter assay with SHP1(210-595) constructs, endoxifen dose response (FIG. 31); format: cell-based, human; conditions: Jurkat E6.1 cells, 1:40 Immunocult CD3/CD28, varying amounts of Z-endoxifen
Excerpt: (§2) Reporter constructs included firefly luciferase (Luc) under the control of an NFAT response element and firefly luciferase (Luc) under the control of an IL2 response element. Data presented in the first panel is from Jurkat E6.1 cells transiently transfected with an NFAT-Luciferase reporter construct, as well as one of (a) empty vector; (b) an expression construct encoding SHP1(210-595); and (c) an expression construct encoding SHP1(210-595)-ER(T12). Data presented in the second panel is from Jurkat E6.1 cells transiently transfected with an IL2-Luciferase reporter construct, as well as one of (a) empty vector; (b) an expression construct encoding SHP1(210-595); and (c) an expression construct encoding SHP1(210-595)-ER(T12). Transient transfections were performed using LTX and PLUS transfection reagent (ThermoFisher Scientific) according to manufacturer's protocols. Transfected cells were treated in the presence of 1:40 dilution of Immunocult CD3/CD28 tetrameric antibody mixture (StemCell Technologies, Canada), which stimulated T-cell activity. Stimulated cells were then further treated with RPMI 1640 media plus 4.8% FBS stripped with charcoal dextran (ThermoFisher Scientific), with varying amounts of Z-endoxifen (Axon-Medchem) as indicated in FIG. 31. Luciferase activity (luminescence) was measured and reported as percent induction of IL2-Luciferase.

[4] = system: IL2-Luciferase reporter; test: IL2-Luciferase reporter assay with SHP1(210-595) constructs (Example 12); format: cell-based, human; conditions: Jurkat E6.1 cells, α-CD3 and α-CD28, with or without endoxifen, compared to empty vector controls
Description: To provide a means for assessing T cell activity, a construct containing a reporter gene, such as firefly luciferase (Luc), under the control of an IL2 response element can be used. In the present Example, Jurkat E6.1 cells were transiently transfected with an IL2-Luciferase reporter construct, as well as one of (a) empty vector; (b) an expression construct encoding SHP1(210-595); and (c) an expression construct encoding SHP1(210-595)-ER(T12). Transient transfections were performed using LTX and PLUS transfection reagent (ThermoFisher Scientific) according to manufacturer's protocols.
Transfected cells were treated in the absence or presence of 1:30 dilution of Immunocult CD3/CD28 tetrameric antibody mixture (StemCell Technologies, Canada), which stimulated T-cell activity. Stimulated cells were then further treated with RPMI 1640 media plus 4.8% FBS stripped with charcoal dextran (ThermoFisher Scientific), without Z-endoxifen or with 50 nM Z-endoxifen (Axon-Medchem). Luciferase activity (luminescence) was measured and reported as percent induction of IL2-Luciferase.

[5] = system: NFAT-Luciferase reporter; test: NFAT-Luciferase reporter assay with SHP1(210-595) constructs, endoxifen dose response (FIG. 31); format: cell-based, human; conditions: Jurkat E6.1 cells, 1:40 Immunocult CD3/CD28, varying amounts of Z-endoxifen
Excerpt: as §2

| Molecule | IC50 [1] [nM] | IC50 [2] [nM] | inhibition of IL2-Luciferase reporter expression [3] | luciferase reporter expression (percent induction of IL2-Luciferase) [4] | inhibition of NFAT-Luciferase reporter expression [5] |
| --- | --- | --- | --- | --- | --- |
| CC/C(=C(\c1ccc(O)cc1)c1ccc(OCCNC)cc1)c1ccccc1 [endoxifen] | 6.31 | 1.58 | – | – | – |
| SHP1(210-595): constitutively active SHP1 phosphatase signaling moiety, SEQ ID NO: 23 | – | – | endoxifen-independent manner | substantially reduced expression of luciferase reporter | endoxifen-independent manner |
